Legend:
Assay type in all cases: in vivo
winter wheat = experiment: Yield upon winter wheat seed treatment (FIG. 6); settings: statistical data for FIG. 6, yield
Text: (§1) FIG. 6 is a graph showing the yield upon winter wheat seed treatment using a synergistic agricultural formula in accordance with the present invention including 14 wt. % DFU and 10 wt. % of Stollers STIMULATE YE Plant Growth Regulator Mix applied at a Pint/Acre compared to each individual component applied at a Pint/Acre;
(§2) The statistical data for this analysis is provided as follows: […]

corn [1] = experiment: Yield in furrow corn treatment (FIG. 8); settings: statistical data for FIG. 8, yield
Text: FIG. 8 is a graph showing the yield in furrow corn treatment using a synergistic agricultural formula in accordance with the present invention including 7.5 wt. % DFU, 0.01 wt. % cytokinin, and 0.05 wt. % IAA applied at a Pint/Acre compared to each individual component applied at a Pint/Acre; and
as §2

soybean = experiment: Yield upon soybean seed treatment (FIG. 7); settings: statistical data for FIG. 7, yield
Text: as §1, with “7” for “6”, “soybean” for “winter wheat”
as §2

corn [2] = experiment: Yield upon corn seed treatment (FIG. 5); settings: statistical data for FIG. 5, yield
Text: as §1, with “5” for “6”, “corn” for “winter wheat”
as §2

corn [3] = experiment: Yield, V3-V5 foliar corn treatment (FIG. 9); settings: statistical data for FIG. 9, yield
Text: FIG. 9 is a graph showing V3-V5 foliar corn treatment using a synergistic agricultural formula in accordance with the present invention including 7.5 wt. % DFU and 0.01 wt. % cytokinin applied at a Pint/Acre compared to each individual component applied at a Pint/Acre.
as §2

## O=CNC(=O)NC=O [15% DFU, N,N′-diformylurea]
Winter wheat
  p Vs Combination: 0.0089
  p Vs Control: 0.0026
Corn [1]
  p Vs Combination: 0.0622
  p Vs Control: 0.5485
soybean
  p Vs Combination: 0.052
  p Vs Control: 0.4492
Corn [2]
  p Vs Combination: 0.0442
  p Vs Control: 0.8782
Corn [3]
  p Vs Combination: 0.0677
  p Vs Control: 0.6829

Reference: patent US20190008155A1, “Synergistic Agricultural Formula Comprising Diacyl or Diaryl Urea and At Least One Plant Growth Regulator” (Stoller Enterprises, Inc., priority 2017, published 2019)
